Data set [1] has as its system bicistronic HCV replicon (replicon RNA, GenBank Accession No. AJ242654). Nature of the data set: HCV Replicon Assay. The data set is classed as cell-based. Particulars: Hepatitis C virus, 72 h, read-out: Replicon IC50. A general note: A replicon is a self-replicating genome or part of one, used to study replication in cells.

Molecules are shown by their SMILES. pIC50: −log10 of the molar value.

As for `Cc1cc2c(cc1F)c(C#N)c(-c1ccc(S(=O)(=O)N[C@@H](C)C(F)(F)F)cn1)n2-c1cncc(F)c1` [compound 945, 6-[3-cyano-5-fluoro-1-(5-fluoropyridin-3-yl)-6-methyl-1H-indol-2-yl]-N-[(2S)-1,1,1-trifluoropropan-2-yl]pyridine-3-sulfonamide], the melting point (as a rule, the temperature, or range, at which the solid turns liquid) is 199 to 204 °C. The pIC50 (usually the IC50 on a negative log10 scale, so that one unit is a factor of ten) in data set [1] is over 6.30.
On to `C[C@H](NS(=O)(=O)c1ccc(-c2c(Cl)c3cc(F)c(C4CC4)cc3n2-c2ncccn2)nc1)C(F)(F)F` [compound 947, 6-[3-chloro-6-cyclopropyl-5-fluoro-1-(pyrimidin-2-yl)-1H-indol-2-yl]-N-[(2S)-1,1,1-trifluoropropan-2-yl]pyridine-3-sulfonamide], for which the melting point was in the range of 248 to 250 °C. Further, the pIC50 in data set [1] was over 6.30.
For `Cc1ccc2c(c1)c(C#N)c(-c1ccc(S(=O)(=O)N[C@@H](C)C(F)(F)F)cn1)n2-c1ncc(F)cn1` [compound 948, 6-[3-cyano-1-(5-fluoropyrimidin-2-yl)-5-methyl-1H-indol-2-yl]-N-[(2S)-1,1,1-trifluoropropan-2-yl]pyridine-3-sulfonamide] the same measures were 202 to 207 °C and over 6.30.
In the same order, the values of `Cc1cc2c(C#N)c(-c3ccc(S(=O)(=O)N[C@@H](C)C(F)(F)F)cn3)n(-c3ncc(F)cn3)c2cc1F` [compound 949, 6-[3-cyano-6-fluoro-1-(5-fluoropyrimidin-2-yl)-5-methyl-1H-indol-2-yl]-N-[(2S)-1,1,1-trifluoropropan-2-yl]pyridine-3-sulfonamide] are 226 to 231 °C and over 6.30.
For `C[C@H](NS(=O)(=O)c1ccc(-c2c(C#N)c3ccc(C(F)(F)F)cc3n2-c2ncccn2)nc1)C(F)(F)F` [compound 950, 6-[3-cyano-1-(pyrimidin-2-yl)-6-(trifluoromethyl)-1H-indol-2-yl]-N-[(2S)-1,1,1-trifluoropropan-2-yl]pyridine-3-sulfonamide] the same measures were 206 to 210 °C and over 6.30.
As for `C[C@H](NS(=O)(=O)c1ccc(-c2c(C#N)c3ccc(C(F)(F)F)cc3n2-c2cnccn2)nc1)C(F)(F)F` [compound 951, 6-[3-cyano-1-(pyrazin-2-yl)-6-(trifluoromethyl)-1H-indol-2-yl]-N-[(2S)-1,1,1-trifluoropropan-2-yl]pyridine-3-sulfonamide], the melting point was in the range of 208 to 213 °C. In addition, the pIC50 in data set [1] is over 6.30.
Regarding `C[C@H](NS(=O)(=O)c1ccc(-c2c(C#N)c3ccc(C(F)(F)F)cc3n2-c2ccccn2)nc1)C(F)(F)F` [compound 952, 6-[3-cyano-1-(pyridin-2-yl)-6-(trifluoromethyl)-1H-indol-2-yl]-N-[(2S)-1,1,1-trifluoropropan-2-yl]pyridine-3-sulfonamide], the melting point lay within 173 to 176 °C. The pIC50 in data set [1] is over 6.30.
For `CCc1cc2c(cc1F)c(C#N)c(-c1ccc(S(=O)(=O)NCC3CCC3)cn1)n2-c1ncccn1` [compound 953, 6-[3-cyano-6-ethyl-5-fluoro-1-(pyrimidin-2-yl)-1H-indol-2-yl]-N-(cyclobutylmethyl)pyridine-3-sulfonamide] the same measures were 207 to 214 °C and over 6.30.
For `CCc1cc2c(cc1F)c(C#N)c(-c1ccc(S(=O)(=O)N[C@@H](C)C(F)(F)F)cn1)n2-c1cccnc1` [compound 954, 6-[3-cyano-6-ethyl-5-fluoro-1-(pyridin-3-yl)-1H-indol-2-yl]-N-[(2S)-1,1,1-trifluoropropan-2-yl]pyridine-3-sulfonamide] the same measures were 205 to 212 °C and over 6.30.
On to `CCc1cc2c(cc1F)c(C#N)c(-c1ccc(S(=O)(=O)N[C@@H](C)C(F)(F)F)cn1)n2-c1cc(OC)ccn1` [compound 955, 6-[3-cyano-6-ethyl-5-fluoro-1-(4-methoxypyridin-2-yl)-1H-indol-2-yl]-N-[(2S)-1,1,1-trifluoropropan-2-yl]pyridine-3-sulfonamide], for which the melting point is 227 to 233 °C. In addition, in data set [1], the pIC50 was over 6.30.
In the same order, the values of `Cc1cc2c(cc1F)c(C#N)c(-c1ccc(S(=O)(=O)N[C@@H](C)C(F)(F)F)cn1)n2-c1cscn1` [compound 960, 6-[3-cyano-5-fluoro-6-methyl-1-(1,3-thiazol-4-yl)-1H-indol-2-yl]-N-[(2S)-1,1,1-trifluoropropan-2-yl]pyridine-3-sulfonamide] are 184 to 189 °C and over 6.30.
For `Cc1cc2c(cc1F)c(C#N)c(-c1ccc(S(=O)(=O)N[C@@H](C)C(F)(F)F)cn1)n2-c1ccc(F)c(C)n1` [compound 961, 6-[3-cyano-5-fluoro-1-(5-fluoro-6-methylpyridin-2-yl)-6-methyl-1H-indol-2-yl]-N-[(2S)-1,1,1-trifluoropropan-2-yl]pyridine-3-sulfonamide] the same measures were 240 to 246 °C and over 6.30.
For the molecule `Cc1cc2c(cc1F)c(C#N)c(-c1ccc(S(=O)(=O)N[C@@H](C)C(F)(F)F)cn1)n2-c1cccc(Cl)n1` [compound 962, 6-[1-(6-chloropyridin-2-yl)-3-cyano-5-fluoro-6-methyl-1H-indol-2-yl]-N-[(2S)-1,1,1-trifluoropropan-2-yl]pyridine-3-sulfonamide], the melting point was 253 to 257 °C. Besides, the negative-log IC50 (pIC50) in data set [1] was over 6.30.
`CCc1cc2c(cc1F)c(C#N)c(-c1ccc(S(=O)(=O)N[C@@H](C)C(F)(F)F)cn1)n2-c1cncnc1` [compound 963, 6-[3-cyano-6-ethyl-5-fluoro-1-(pyrimidin-5-yl)-1H-indol-2-yl]-N-[(2S)-1,1,1-trifluoropropan-2-yl]pyridine-3-sulfonamide] gave a melting point of 250 to 257 °C. For the same molecule, the pIC50 in data set [1] is over 6.30.
In the case of `CCc1cc2c(cc1F)c(C#N)c(-c1ccc(S(=O)(=O)N[C@@H](C)C(F)(F)F)cn1)n2-c1ccncn1` [compound 964, 6-[3-cyano-6-ethyl-5-fluoro-1-(pyrimidin-4-yl)-1H-indol-2-yl]-N-[(2S)-1,1,1-trifluoropropan-2-yl]pyridine-3-sulfonamide], the melting point was 202 to 206 °C. For the same molecule, the pIC50 in data set [1] is over 6.30.
In the case of `CCc1cc2c(cc1F)c(C#N)c(-c1ccc(S(=O)(=O)N[C@@H](C)C(F)(F)F)cn1)n2-c1ncccc1Cl` [compound 965, 6-[1-(3-chloropyridin-2-yl)-3-cyano-6-ethyl-5-fluoro-1H-indol-2-yl]-N-[(2S)-1,1,1-trifluoropropan-2-yl]pyridine-3-sulfonamide], the melting point is 200 to 208 °C. Besides, the pIC50 in data set [1] was over 6.30.
On to `CCc1cc2c(cc1F)c(C#N)c(-c1ccc(S(=O)(=O)N[C@@H](C)C(F)(F)F)cn1)n2-c1ccc(Cl)cn1` [compound 966, 6-[1-(5-chloropyridin-2-yl)-3-cyano-6-ethyl-5-fluoro-1H-indol-2-yl]-N-[(2S)-1,1,1-trifluoropropan-2-yl]pyridine-3-sulfonamide], for which the melting point was in the range of 252 to 259 °C. The pIC50 in data set [1] is over 6.30.
In turn, `Cc1cc2c(cc1F)c(C#N)c(-c1ccc(S(=O)(=O)N[C@@H](C)C(F)(F)F)cn1)n2-c1ncccc1Cl` [compound 971, 6-[1-(3-chloropyridin-2-yl)-3-cyano-5-fluoro-6-methyl-1H-indol-2-yl]-N-[(2S)-1,1,1-trifluoropropan-2-yl]pyridine-3-sulfonamide] had a melting point of 221 to 225 °C. The pIC50 in data set [1] is 5.70 to 6.30.

The values are drawn from US8735414B2 (priority 2009, dated 2014).
